Results as given in ChEMBL document CHEMBL4138123, “Design, synthesis and biological evaluation of novel pyrazolochalcones as potential modulators of PI3K/Akt/mTOR pathway and inducers of apoptosis in breast cancer cells” (Eur J Med Chem, 2017).

Legend:
Type in all cases: functional
CCRF-CEM = experiment: Cytotoxicity against human CCRF-CEM cells assessed as growth inhibition after 48 hrs by sulforhodamine B assay
HL-60(TB) [1] = experiment: Cytotoxicity against human HL-60(TB) cells assessed as growth inhibition after 48 hrs by sulforhodamine B assay; settings: HL-60, 48 h
MOLT-4 = experiment: Cytotoxicity against human MOLT4 cells assessed as growth inhibition after 48 hrs by sulforhodamine B assay; settings: MOLT-4, 48 h; for CC50: read-out: LC50 (the source's name)
IGROV-1 [2] = experiment: Cytotoxicity against human IGROV1 cells assessed as growth inhibition after 48 hrs by sulforhodamine B assay; settings: IGROV-1, 48 h
OVCAR-3 [3] = experiment: Cytotoxicity against human OVCAR3 cells assessed as growth inhibition after 48 hrs by sulforhodamine B assay; settings: OVCAR-3, 48 h
MCF7 [4] = experiment: Cytotoxicity against human MCF7 cells assessed as growth inhibition after 48 hrs by sulforhodamine B assay; settings: MCF7, 48 h
A498 = experiment: Cytotoxicity against human A498 cells assessed as cell growth at 0.01 uM after 48 hrs by sulforhodamine B assay relative to control; settings: A498, 48 h, read-out: Activity
NCI/ADR-RES = experiment: Cytotoxicity against human NCI/ADR-RES cells assessed as cell growth at 0.01 uM after 48 hrs by sulforhodamine B assay relative to control; settings: read-out: Activity
SK-MEL-28 = experiment: Cytotoxicity against human SK-MEL-28 cells assessed as cell growth at 0.01 uM after 48 hrs by sulforhodamine B assay relative to control; settings: SK-MEL-28, 48 h, read-out: Activity
Malme-3M = experiment: Cytotoxicity against human MALME-3M cells assessed as cell growth at 0.01 uM after 48 hrs by sulforhodamine B assay relative to control; settings: read-out: Activity
NCI-H522 = experiment: Cytotoxicity against human NCI-H522 cells assessed as cell growth at 0.01 uM after 48 hrs by sulforhodamine B assay relative to control; settings: NCI-H522, 48 h, read-out: Activity
RPMI-8226 [5] = experiment: Cytotoxicity against human RPMI8226 cells assessed as cell growth at 0.01 uM after 48 hrs by sulforhodamine B assay relative to control; settings: RPMI-8226, 48 h, read-out: Activity
HL-60(TB) [6] = experiment: Cytotoxicity against human HL-60(TB) cells assessed as cell growth at 0.1 uM after 48 hrs by sulforhodamine B assay relative to control; settings: HL-60, 48 h, read-out: Activity
RPMI-8226 [7] = experiment: Cytotoxicity against human RPMI8226 cells assessed as cell growth at 0.1 uM after 48 hrs by sulforhodamine B assay relative to control; settings: RPMI-8226, 48 h, read-out: Activity
A549 [8] = experiment: Cytotoxicity against human A549/ATCC cells assessed as cell growth at 0.1 uM after 48 hrs by sulforhodamine B assay relative to control; settings: A549, 48 h, read-out: Activity
COLO 205 = experiment: Cytotoxicity against human COLO205 cells assessed as cell growth at 0.1 uM after 48 hrs by sulforhodamine B assay relative to control; settings: COLO 205, 48 h, read-out: Activity
SNB-19 [9] = experiment: Cytotoxicity against human SNB19 cells assessed as cell growth at 0.1 uM after 48 hrs by sulforhodamine B assay relative to control; settings: SNB-19, 48 h, read-out: Activity
OVCAR-5 = experiment: Cytotoxicity against human OVCAR5 cells assessed as cell growth at 0.1 uM after 48 hrs by sulforhodamine B assay relative to control; settings: OVCAR-5, 48 h, read-out: Activity
PC-3 = experiment: Cytotoxicity against human PC3 cells assessed as cell growth at 0.1 uM after 48 hrs by sulforhodamine B assay relative to control; settings: PC-3, 48 h, read-out: Activity
MCF7 [10] = experiment: Cytotoxicity against human MCF7 cells assessed as cell growth at 0.1 uM after 48 hrs by sulforhodamine B assay relative to control; settings: MCF7, 48 h, read-out: Activity
T47D [11] = experiment: Cytotoxicity against human T47D cells assessed as cell growth at 0.1 uM after 48 hrs by sulforhodamine B assay relative to control; settings: read-out: Activity
HL-60(TB) [12] = experiment: Cytotoxicity against human HL-60(TB) cells assessed as cell growth at 1 uM after 48 hrs by sulforhodamine B assay relative to control; settings: HL-60, 48 h, read-out: Activity
RPMI-8226 [13] = experiment: Cytotoxicity against human RPMI8226 cells assessed as cell growth at 1 uM after 48 hrs by sulforhodamine B assay relative to control; settings: RPMI-8226, 48 h, read-out: Activity
A549 [14] = experiment: Cytotoxicity against human A549/ATCC cells assessed as cell growth at 1 uM after 48 hrs by sulforhodamine B assay relative to control; settings: A549, 48 h, read-out: Activity
SN12C [15] = experiment: Cytotoxicity against human SN12C cells assessed as cell growth at 1 uM after 48 hrs by sulforhodamine B assay relative to control; settings: read-out: Activity
UO-31 = experiment: Cytotoxicity against human UO31 cells assessed as cell growth at 1 uM after 48 hrs by sulforhodamine B assay relative to control; settings: UO-31, 48 h, read-out: Activity
Hs-578T = experiment: Cytotoxicity against human Hs 578T cells assessed as cell growth at 1 uM after 48 hrs by sulforhodamine B assay relative to control; settings: read-out: Activity
SNB-19 [16] = experiment: Cytotoxicity against human SNB19 cells assessed as cell growth at 10 uM after 48 hrs by sulforhodamine B assay relative to control; settings: SNB-19, 48 h, read-out: Activity
U-251 [17] = experiment: Cytotoxicity against human U251 cells assessed as cell growth at 10 uM after 48 hrs by sulforhodamine B assay relative to control; settings: U-251, 48 h, read-out: Activity
IGROV-1 [18] = experiment: Cytotoxicity against human IGROV1 cells assessed as cell growth at 10 uM after 48 hrs by sulforhodamine B assay relative to control; settings: IGROV-1, 48 h, read-out: Activity
SN12C [19] = experiment: Cytotoxicity against human SN12C cells assessed as cell growth at 10 uM after 48 hrs by sulforhodamine B assay relative to control; settings: read-out: Activity
NCI-H322M = experiment: Cytotoxicity against human NCI-H322M cells assessed as cell growth at 100 uM after 48 hrs by sulforhodamine B assay relative to control; settings: read-out: Activity
U-251 [20] = experiment: Cytotoxicity against human U251 cells assessed as cell growth at 100 uM after 48 hrs by sulforhodamine B assay relative to control; settings: U-251, 48 h, read-out: Activity
OVCAR-3 [21] = experiment: Cytotoxicity against human OVCAR3 cells assessed as cell growth at 100 uM after 48 hrs by sulforhodamine B assay relative to control; settings: OVCAR-3, 48 h, read-out: Activity
SK-OV-3 = experiment: Cytotoxicity against human SKOV3 cells assessed as cell growth at 100 uM after 48 hrs by sulforhodamine B assay relative to control; settings: SK-OV-3, 48 h, read-out: Activity
T47D [22] = experiment: Cytotoxicity against human T47D cells assessed as cell growth at 100 uM after 48 hrs by sulforhodamine B assay relative to control; settings: read-out: Activity

COc1ccc(C(=O)/C=C/c2cc(-c3ccc(OC)c(OC)c3)n[nH]2)cc1OC
GI50 (CCRF-CEM): 0.364 µM | TGI (CCRF-CEM): 5.52 µM | GI50 (HL-60(TB) [1]): 2.76 µM | TGI (HL-60(TB) [1]): > 100 µM | GI50 (MOLT-4): 2.2 µM | TGI (MOLT-4): > 100 µM | CC50 (MOLT-4): > 100 µM | GI50 (IGROV-1 [2]): 3.13 µM | TGI (IGROV-1 [2]): 53.8 µM | GI50 (OVCAR-3 [3]): 1.96 µM | TGI (OVCAR-3 [3]): 4.72 µM | GI50 (MCF7 [4]): 0.937 µM | TGI (MCF7 [4]): 8.02 µM | growth at 0.01 µM (A498): 82% | growth at 0.01 µM (NCI/ADR-RES): 104% | growth at 0.01 µM (SK-MEL-28): 89% | growth at 0.01 µM (Malme-3M): 99% | growth at 0.01 µM (NCI-H522): 91% | growth at 0.01 µM (RPMI-8226 [5]): 98% | growth at 0.1 µM (HL-60(TB) [6]): 101% | growth at 0.1 µM (RPMI-8226 [7]): 91% | growth at 0.1 µM (A549 [8]): 93% | growth at 0.1 µM (COLO 205): 98% | growth at 0.1 µM (SNB-19 [9]): 91% | growth at 0.1 µM (OVCAR-5): 94% | growth at 0.1 µM (PC-3): 95% | growth at 0.1 µM (MCF7 [10]): 94% | growth at 0.1 µM (T47D [11]): 86% | growth at 1 µM (HL-60(TB) [12]): 86% | growth at 1 µM (RPMI-8226 [13]): 17% | growth at 1 µM (A549 [14]): 77% | growth at 1 µM (SN12C [15]): 85% | growth at 1 µM (UO-31): 72% | growth at 1 µM (Hs-578T): 87% | growth at 10 µM (SNB-19 [16]): -48% | growth at 10 µM (U-251 [17]): -85% | growth at 10 µM (IGROV-1 [18]): 6% | growth at 10 µM (SN12C [19]): -40% | growth at 100 µM (NCI-H322M): -48% | growth at 100 µM (U-251 [20]): -53% | growth at 100 µM (OVCAR-3 [21]): -64% | growth at 100 µM (SK-OV-3): -8% | growth at 100 µM (T47D [22]): -9%

COc1ccc(-c2cc(/C=C/C(=O)c3ccc(N)cc3)[nH]n2)cc1OC
GI50 (CCRF-CEM): 1.74 µM | LC50 (concentration killing 50% of cells) (CCRF-CEM): > 100 µM | TGI (CCRF-CEM): 7.81 µM | GI50 (HL-60(TB) [1]): 3.45 µM | LC50 (HL-60(TB) [1]): > 100 µM | TGI (HL-60(TB) [1]): > 100 µM | GI50 (MOLT-4): 3.11 µM | TGI (MOLT-4): 16.5 µM | CC50 (MOLT-4): > 100 µM | GI50 (IGROV-1 [2]): 4.56 µM | LC50 (IGROV-1 [2]): 73 µM | TGI (IGROV-1 [2]): 19 µM | GI50 (OVCAR-3 [3]): 1.92 µM | LC50 (OVCAR-3 [3]): 9.14 µM | TGI (OVCAR-3 [3]): 4.19 µM | GI50 (MCF7 [4]): 2.28 µM | LC50 (MCF7 [4]): 71.2 µM | TGI (MCF7 [4]): 8.48 µM | growth at 0.01 µM (A498): 95% | growth at 0.01 µM (NCI/ADR-RES): 102% | growth at 0.01 µM (SK-MEL-28): 92% | growth at 0.01 µM (Malme-3M): 104% | growth at 0.01 µM (NCI-H522): 92% | growth at 0.01 µM (RPMI-8226 [5]): 98% | growth at 0.1 µM (HL-60(TB) [6]): 104% | growth at 0.1 µM (RPMI-8226 [7]): 96% | growth at 0.1 µM (A549 [8]): 93% | growth at 0.1 µM (COLO 205): 95% | growth at 0.1 µM (SNB-19 [9]): 90% | growth at 0.1 µM (OVCAR-5): 95% | growth at 0.1 µM (PC-3): 95% | growth at 0.1 µM (MCF7 [10]): 89% | growth at 0.1 µM (T47D [11]): 90% | growth at 1 µM (HL-60(TB) [12]): 97% | growth at 1 µM (RPMI-8226 [13]): 59% | growth at 1 µM (A549 [14]): 89% | growth at 1 µM (SN12C [15]): 93% | growth at 1 µM (UO-31): 86% | growth at 1 µM (Hs-578T): 96% | growth at 10 µM (SNB-19 [16]): 31% | growth at 10 µM (U-251 [17]): -68% | growth at 10 µM (IGROV-1 [18]): 24% | growth at 10 µM (SN12C [19]): 14% | growth at 100 µM (NCI-H322M): -88% | growth at 100 µM (U-251 [20]): -96% | growth at 100 µM (OVCAR-3 [21]): -99% | growth at 100 µM (SK-OV-3): -99% | growth at 100 µM (T47D [22]): -40%

COc1ccc(-c2cc(/C=C/C(=O)c3ccc4c(c3)OCO4)[nH]n2)cc1OC
GI50 (CCRF-CEM): 0.36 µM | GI50 (HL-60(TB) [1]): 2.76 µM | GI50 (MOLT-4): 2.2 µM | GI50 (IGROV-1 [2]): 3.13 µM | GI50 (OVCAR-3 [3]): 1.96 µM | GI50 (MCF7 [4]): 0.93 µM
